Assay results from patent US9952300B2, “Dynamic contrast enhanced MRI method and agents for the assessment of the macromolecular transport within pathologic tissues” (BRACCO IMAGING S.P.A., priority 2012, dated 2018).
Several values for one entry are separate records, joined by “and”; a condition that tells them apart may be missing. Identical values can stand only once.

Biological target: Human Serum Albumin (Homo sapiens, UniProt P02768)
Assay: Binding (%) of the paramagnetic complex to human serum proteins/albumin by centrifugal ultrafiltration
Assay type: in vitro ADME
Design: purchased Nycomed Phama; host or cells: Seronorm Human, reconstituted (lyophilised) human serum
From the text: Preferred albumin binding agents according to the invention include paramagnetic contrast agents having molecular weight lower than 5,000 Da, preferably lower that 3,000 Da and, more preferably, comprised from 800 to 3,000 Da, that further display an in-vivo non-covalent protein binding with the Human Serum Albumin (or HSA, or albumin, as herein used interchangeably) equal to or higher that 85%, preferably higher than 90% and, more preferably, higher than 95%, expressed in terms of % of the agent amount that is non-covalently bound to serum albumin, measured by centrifugal ultrafiltration (Centrifree®) from a 0.5 mM solution of the agent in Seronorm® incubated at 37° C., according to the procedure disclosed, for instance, in Invest.Radiol. 2006, 41: 279-291; Whitlam J B, Brown K F. Ultrafiltration in serum protein binding determinations. J.Pharm.Sci. 1981; 70:146-150, and in the Example 2 of the Experimental section.
The binding (%) has been determined by with the method of the centrifugal ultrafiltration as described in: Whitlam J B, Brown K F Ultrafiltration in serum protein binding determination. J. Pharm Sci. 1981; 70:146-150; Bowers W F, Fulton S, thompson J. Ultrafiltration vs equilibrium dialysis for determination of free fraction. […]
The albumin serum protein binding was analysed in a human serum solution (Seronorm Human, Nycomed Phama) where each complex was added at a concentration of Gd(III) ion of 0.5 mM. […] The percent of Gd(III)-complex bound (% B) was determined by equation: % B=[(Ct−Cf)/Ct]*100 where Ct is the total amount of Gd(III) in the incubated solution and Cf is the free Gd(III) complex found in the permeate solution. The average bound fraction was assessed from ultrafiltration experiments carried out in triplicate. […]
The above solution (0.300 mL) was added to 15 mL of reconstituted human serum. […] The protein free permeate solution (0.4 mL) was collected and Cf was measured by ICP-MS analysis. […]
From obtained Cf values the percent of bound Gd-complex was determined by application of the following equation % B=[(Ct−Cf)/Ct]*100 where Ct is 0.460 mM (S.D.: 0.015). […]

Chain of Human Serum Albumin (P02768 25-609): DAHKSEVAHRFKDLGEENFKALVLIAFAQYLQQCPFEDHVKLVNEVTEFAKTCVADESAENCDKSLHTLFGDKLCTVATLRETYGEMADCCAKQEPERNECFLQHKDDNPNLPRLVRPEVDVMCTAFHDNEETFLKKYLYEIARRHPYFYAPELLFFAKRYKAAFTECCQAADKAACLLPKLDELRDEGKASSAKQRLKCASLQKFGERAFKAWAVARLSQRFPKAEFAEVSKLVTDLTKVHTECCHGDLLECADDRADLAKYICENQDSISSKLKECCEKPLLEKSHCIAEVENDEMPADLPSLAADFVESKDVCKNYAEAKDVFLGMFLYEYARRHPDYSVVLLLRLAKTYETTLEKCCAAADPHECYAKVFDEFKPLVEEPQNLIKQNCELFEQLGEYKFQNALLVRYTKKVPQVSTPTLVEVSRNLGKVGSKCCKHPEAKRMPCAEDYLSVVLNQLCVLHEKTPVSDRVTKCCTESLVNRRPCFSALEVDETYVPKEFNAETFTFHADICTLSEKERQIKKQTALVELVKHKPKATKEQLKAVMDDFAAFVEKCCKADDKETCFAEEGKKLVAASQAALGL

Average Gd(III), Cf (free Gd(III) complex in the permeate solution) (0.5 mM Gd(III) complex in Seronorm human serum, 10 min at 37° C., 30 KDa MWCO ultrafiltration, per permeate A, B, C, trisodium salt): 0.016 mM and 0.011 mM and 0.012 mM
% B, Average (0.5 mM complex in human serum, 37° C., average of triplicate): 97.19%
% B (percent of Gd(III)-complex bound to serum proteins) (0.5 mM complex in human serum, 37° C., single ultrafiltrations, trisodium salt): 96.52% and 97.65% and 97.39%
Structure (SMILES): C[C@H](CCC(=O)[O-])[C@H]1CC[C@H]2[C@@H]3CC[C@@H]4C[C@@H](NC(=O)CC[C@@H](C(=O)[O-])N(CCN(CC(=O)[O-])CC(=O)[O-])CCN(CC(=O)[O-])CC(=O)[O-])CC[C@]4(C)[C@H]3C[C@H](O)[C@]12C.[Gd+3].[Na+].[Na+].[Na+] [B22956/1, Gadocoletic acid trisodium salt]
